Experimental data taken from patent publication US9284303B2, “Benzimidazole cannabinoid agonists bearing a substituted heterocyclic group” (priority 2006, dated 2016).
pEC50: −log10 of the molar value.

How the values were obtained:
[1] = biological target: T1, human CB1 (hCB1) receptor (Homo sapiens, UniProt P21554); experiment: Inhibition of forskolin-activated cAMP production upon activation of hCB1 (HTRF), CHO-K1 cells; assay type: cell-based; settings: CB1 pEC50, hCB1-CHO-K1 cells, forskolin-activated cAMP, pEC50=-log(EC50)
T1 construct: expressed in transfected cells; host or cells: CHO-K1
Description: (§1) Functional activity of the test compounds was assessed by measuring their potency to inhibit forskolin-activated cAMP production upon activation of the human CB1 (hCB1) or human CB2 (hCB2) receptor through homogenous time resolved fluorescence (HTRF) assays.
CHO-K1 cells stably transfected with either hCB1 or hCB2 were grown up to 80-90% confluence in T175 Falcon flasks in DMEM/NUT MIX F-12 culture medium complemented with 2% Solution A (5.10^6 IU/l penicillin G, 5 g/l streptomycin sulphate, 5.5 g/l pyruvate, 14.6 g/l L-glutamine, 1M NaOH) and 10% foetal calf serum. Before the experiments, medium was removed, cells were washed with PBS/EDTA (140 mM NaCl, 1 mM Naz-EDTA, 8 mM Na2HPO4.2H2O, 8.5 mM KH2PO4, 2.7 mM KCl, 21 mM glucose), resuspended in stimulation buffer (HBSS 1x, IBMX 1 mM, Hepes 5 mM, MgCl2 10 mM, BSA 0.1%, pH 7.4). Cells were diluted to a concentration of 8.10^5 cell/ml for hCB1 experiments and 10^6 cells/ml for hCB2 experiments. Assays were performed using the cAMP Dynamic HTRF kit (CIS bio international, France) according to the recommendations of the manufacturer.
For CB1, each well of a 96 flat bottom black polystyrene assay plate (Costar) was filled with 25 μl stimulation buffer containing 6 μM forskolin and either test compound (in 2% DMSO), 2% DMSO or 2 μM CP55490 (in 2% DMSO). Then, 25 μl of the diluted cells was added (20,000 cells/well). After 30 minutes incubation in dark at room temperature, 25 μl cAMP-XL665 and 25 μl anti-cAMP cryptate (both at a final dilution of 1/80) was added to the cells.
After equilibration of the reaction mixtures for 1 to 24 hours in dark at room temperature, fluorescence was measured at 665 nm and 620 nm using a Discovery microplate fluorescence counter (Perkin Elmer), and the signal ratio of 665 nm/620 nm was calculated. The signal ratios of the test compounds were expressed relative to the signal ratios of the DMSO control (maximal signal ratio, no inhibition of cAMP) and CP55490 or WIN55212-2 for hCB1 and hCB2, respectively (minimal signal ratio, maximal inhibition of cAMP). From the dose response curves generated for each test compound, the dose at which 50% of the maximal inhibition of cAMP level is observed (EC50, expressed in the Tables as pEC50=−log(EC50) values) and the level of inhibition reached with 10 μM of the test compound compared to CP55490 (for hCB1) or WIN55212-2 (for hCB2) was calculated.

[2] = biological target: T2, human CB2 (hCB2) receptor (Homo sapiens, UniProt P34972); experiment: Inhibition of forskolin-activated cAMP production upon activation of hCB2 (HTRF), CHO-K1 cells; assay type: cell-based; settings: for ratio CB2 agonism over CB1 agonism: Table C-1, selectivity hCB2 over hCB1; for EC50: hCB2-CHO-K1 cells, forskolin-activated cAMP, pEC50=-log(EC50), read-out: CB2 pEC50 (converted); for ratio CB2 over CB1 agonism: Table C-3, comparison of art compounds A to E with compounds of the invention
T2 construct: expressed in transfected cells; host or cells: CHO-K1
Description: as §1
Before the experiments, medium was removed, cells were washed with PBS/EDTA (140 mM NaCl, 1 mM Naz-EDTA, 8 mM Na2HPO4.2H2O, 8.5 mM KH2PO4, 2.7 mM KCl, 21 mM glucose), resuspended in stimulation buffer (HBSS 1x, IBMX 1 mM, Hepes 5 mM, MgCl2 10 mM, BSA 0.1%, pH 7.4). Cells were diluted to a concentration of 8.10^5 cell/ml for hCB1 experiments and 10^6 cells/ml for hCB2 experiments. Assays were performed using the cAMP Dynamic HTRF kit (CIS bio international, France) according to the recommendations of the manufacturer.
Then, 20 μl of the diluted hCB2-CHO-K1 cells was added (20,000 cells/well). After 30 minutes incubation in dark at room temperature, 10 μl cAMP-XL665 and 10 μl anti-cAMP cryptate (both at a final dilution of 1/100) was added to the cells.

T1 sequence (P21554 whole entry): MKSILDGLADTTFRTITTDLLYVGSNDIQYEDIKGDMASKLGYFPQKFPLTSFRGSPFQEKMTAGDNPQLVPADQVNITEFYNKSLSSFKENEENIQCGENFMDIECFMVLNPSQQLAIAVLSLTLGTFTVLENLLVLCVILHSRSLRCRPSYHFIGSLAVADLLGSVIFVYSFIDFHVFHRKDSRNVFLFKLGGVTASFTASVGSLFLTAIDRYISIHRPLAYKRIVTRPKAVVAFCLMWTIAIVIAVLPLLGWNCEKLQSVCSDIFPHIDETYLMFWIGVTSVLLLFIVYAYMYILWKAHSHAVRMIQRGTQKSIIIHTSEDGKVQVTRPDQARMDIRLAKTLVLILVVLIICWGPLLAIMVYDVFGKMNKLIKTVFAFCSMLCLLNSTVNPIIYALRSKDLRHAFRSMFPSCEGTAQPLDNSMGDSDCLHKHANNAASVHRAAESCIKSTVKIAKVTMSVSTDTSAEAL
T2 sequence (P34972 whole entry): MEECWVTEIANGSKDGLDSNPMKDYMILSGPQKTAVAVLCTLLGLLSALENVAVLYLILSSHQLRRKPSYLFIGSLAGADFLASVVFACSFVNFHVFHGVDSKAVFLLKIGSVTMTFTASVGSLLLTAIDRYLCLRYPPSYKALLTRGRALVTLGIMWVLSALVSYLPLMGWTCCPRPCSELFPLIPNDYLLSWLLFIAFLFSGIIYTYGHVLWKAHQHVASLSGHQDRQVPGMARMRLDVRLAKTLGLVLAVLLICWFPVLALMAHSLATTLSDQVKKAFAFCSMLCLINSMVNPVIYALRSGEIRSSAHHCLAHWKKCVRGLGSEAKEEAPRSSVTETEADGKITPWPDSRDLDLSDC

Row | SMILES | pEC50 [1] | ratio CB2 agonism over CB1 agonism [2] | EC50 [2] [µM] | ratio CB2 agonism over CB1 agonism ([2]; listed as 58) | ratio CB2 over CB1 agonism [2]
1 | CC(C)(C)c1nc2cc(S(=O)(=O)c3ccnc(OCCCN)c3)ccc2n1CC1CCOCC1 [Co. No. 131] | < 5.00 | >631 | 0.0158 |  | 
2 | COc1ncc(S(=O)(=O)c2ccc3c(c2)nc(C(C)(C)C)n3CC2CCOCC2)cn1 [Co. No. 111] | 6.37 | 372 | 0.00115 |  | 
3 | CC(C)(C)c1nc2cc(S(=O)(=O)c3ccc(S(C)(=O)=O)s3)ccc2n1CC1CCOCC1 [Co. No. 58] | 5.74 |  | 0.000832 | 2188 | 
4 | CCCC(C)Cn1c(C(C)(C)C)nc2cc(S(=O)(=O)c3ccnc(F)c3)ccc21 (stereo not drawn) [Co. No. 148] | < 5.00 | >38905 | 0.000257 |  | 
5 | CC(C)(C)Cc1nc2cc(S(=O)(=O)c3ccncc3)ccc2n1CC1CCOCC1 [Co. No. E, reference compound] |  |  |  |  | 219
6 | CC(C)(C)c1nc2cc(S(=O)(=O)c3ncc(S(C)(=O)=O)cc3Br)ccc2n1CC1CCOCC1 [Co. No. 76] | < 5.00 | >832 | 0.012 |  | 
7 | Cc1cc(S(=O)(=O)c2ccc3c(c2)nc(C(C)(C)C)n3CC2CCOCC2)ccn1 [Co. No. 13] | 5.69 | 1622 | 0.00126 |  | 
8 | Cc1noc(C)c1S(=O)(=O)c1ccc2c(c1)nc(C(C)(C)C)n2CC1CCOCC1 [Co. No. 15] | 6.24 | 556 | 0.00105 |  | 
9 | CC(C)(C)c1nc2cc(S(=O)(=O)c3ccc(O)nc3)ccc2n1CC1CCCCC1 [Co. No. 39] | 5.69 | 1216 | 0.0017 |  | 
10 | CC(C)(C)c1nc2cc(S(=O)(=O)c3ccnc(/C=C\Cl)c3)ccc2n1CC1CCOCC1 [Co. No. 124] | < 5.00 | >692 | 0.0145 |  | 
11 | CC(C)(C)c1nc2cc(S(=O)(=O)c3ccnc(/C=C/Cl)c3)ccc2n1CC1CCOCC1 [Co. No. 125] | < 5.00 | >3981 | 0.00251 |  | 
12 | CC(C)(C)c1nc2cc(S(=O)(=O)c3cccc(C(F)(F)F)n3)ccc2n1CC1CCOCC1 [Co. No. 110] | 5.98 | 1905 | 0.00055 |  | 
13 | CC(C)(C)c1nc2cc(S(=O)(=O)c3ccc(C(=O)N4CCCC4)cn3)ccc2n1CC1CCCCC1 [Co. No. 38] | < 5.00 | >3631 | 0.00275 |  | 
14 | CC(C)(C)c1nc2cc(S(=O)(=O)c3ccc(C(=O)N4CCCC4)o3)ccc2n1CC1CCOCC1 [Co. No. 74] | 5.68 | 668 | 0.00316 |  | 
15 | CC(C)(C)c1nc2cc(S(=O)(=O)c3ccn(C(F)F)c(=O)c3)ccc2n1CC1CCOCC1 [Co. No. 83] | 6.39 | 209 | 0.002 |  | 
16 | COc1ccc(CNCCc2cc(S(=O)(=O)c3ccc4c(c3)nc(C(C)(C)C)n4CC3CCOCC3)ccn2)cc1 [Co. No. 157] | < 5.00 | >2884 | 0.00347 |  | 
17 | CC(=O)NCCCCc1cc(S(=O)(=O)c2ccc3c(c2)nc(C(C)(C)C)n3CC2CCOCC2)ccn1 [Co. No. 141] | < 5.00 | >1792 | 0.00562 |  | 
18 | CC(C)(C)c1nc2cc(S(=O)(=O)c3ccncc3)ccc2n1CC1CCOCC1 [Co. No. A, reference compound] |  |  |  |  | 215
19 | CC(C)(C)c1nc2cc(S(=O)(=O)c3ccccn3)ccc2n1CC1CCOCC1 [Co. No. C, reference compound] |  |  |  |  | 36
